Values quoted from earlier work, collected in patent publication US20050137163A1, “Modified hyaluronic acid for use in musculoskeletal tissue repair” (priority 2003, published 2005).

Conditions: investigated previously as an antimicrobial agent

In the case of benzalconium chloride [BzCl], the “concentration shown to be safe” value is given as “up to 0.1 % weight”.
